Reference: PMC9393241, “Design, Synthesis, and Activity Assays of Cyclin-Dependent Kinase 1 Inhibitors With Flavone Scaffolds” (Frontiers in Chemistry, 2022)

Columns and labels:
CDK4/cyclin D3 = biological target: T1, CDK4/cyclin D3 (Homo sapiens, UniProt P11802); experiment: In vitro anti-CDK4/cyclin D3 kinase assay (Kinase-Glo luminescence); assay type: biochemical; details: for inhibition at 20 µM: test compounds at 20 μM, read-out: Inhibition rates (%) CDK4
T1 construct: purchased
Experimental: (§1) In vitro anti-CDK1/cyclin B1 and CDK4/cyclin D3 assays were performed as described by the manufacturer. All test compounds and controls were dissolved in dimethyl sulfoxide (DMSO) to prepare 50 μM stock solutions. The stock solutions were diluted by double-distilled water and buffer to 40, 30, 20, and 10 μM working concentrations and stored at −20°C. Buffer, ATP, CDK substrate […], and distilled water were mixed, and then 25 μl of the mixture was added to a 96-well plate. Five microliters of 20 μM test compounds were sequentially added. CDK1/cyclin B1 was diluted to 1 ng/μl, and CDK4/cyclin D3 was diluted to 10 ng/μl using a buffer. Twenty microliters of the kinase solutions were incubated with the test compounds at 30°C for 45 min for CDK1/cyclin B1 and for 60 min for CDK4/cyclin D3. Finally, 50 μl of Kinase-Glo Max reagent was added to each well. The 96-well plate was covered with aluminum foil and incubated at room temperature for 15 min. Luminescence of the test compounds was measured with a microplate reader.

CDK1/cyclin B1 = biological target: T2, CDK1/cyclin B1 (Homo sapiens, UniProt P06493); experiment: In vitro anti-CDK1/cyclin B1 kinase assay (Kinase-Glo luminescence); assay type: biochemical; details: for inhibition at 20 µM: test compounds at 20 μM, read-out: Inhibition rates (%) CDK1; for Selectivity: CDK1 compared with CDK4 (CDK4 IC50 / CDK1 IC50)
T2 construct: purchased
T2 sequence (P06493 whole entry): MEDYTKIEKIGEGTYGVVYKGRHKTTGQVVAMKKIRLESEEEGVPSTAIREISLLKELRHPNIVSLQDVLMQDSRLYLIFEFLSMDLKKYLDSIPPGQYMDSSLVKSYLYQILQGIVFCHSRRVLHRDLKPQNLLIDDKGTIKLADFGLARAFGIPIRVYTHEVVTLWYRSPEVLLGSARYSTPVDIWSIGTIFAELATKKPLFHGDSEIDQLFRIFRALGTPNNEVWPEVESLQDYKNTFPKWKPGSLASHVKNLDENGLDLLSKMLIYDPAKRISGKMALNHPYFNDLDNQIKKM
T2 sequence (P14635 whole entry partner): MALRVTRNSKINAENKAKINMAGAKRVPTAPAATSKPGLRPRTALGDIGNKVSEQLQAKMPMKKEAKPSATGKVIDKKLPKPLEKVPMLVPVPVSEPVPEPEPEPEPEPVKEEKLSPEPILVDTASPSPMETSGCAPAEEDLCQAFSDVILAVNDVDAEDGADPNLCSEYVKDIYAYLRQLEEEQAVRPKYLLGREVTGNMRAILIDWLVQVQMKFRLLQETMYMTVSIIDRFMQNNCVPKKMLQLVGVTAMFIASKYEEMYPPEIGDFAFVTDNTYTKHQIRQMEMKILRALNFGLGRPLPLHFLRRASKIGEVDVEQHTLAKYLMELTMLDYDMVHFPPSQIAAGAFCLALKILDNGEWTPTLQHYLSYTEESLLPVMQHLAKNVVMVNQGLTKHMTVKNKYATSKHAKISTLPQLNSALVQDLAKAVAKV
Experimental: as §1

T1 sequence (P11802 whole entry): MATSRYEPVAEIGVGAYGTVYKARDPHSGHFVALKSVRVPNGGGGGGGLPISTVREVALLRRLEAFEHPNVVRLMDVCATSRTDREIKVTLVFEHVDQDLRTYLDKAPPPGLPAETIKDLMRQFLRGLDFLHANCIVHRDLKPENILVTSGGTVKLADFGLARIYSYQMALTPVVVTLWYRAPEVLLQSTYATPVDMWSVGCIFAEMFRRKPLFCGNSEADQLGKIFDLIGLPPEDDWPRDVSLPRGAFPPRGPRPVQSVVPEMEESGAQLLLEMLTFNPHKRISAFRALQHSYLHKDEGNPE
T1 sequence (P30281 whole entry partner): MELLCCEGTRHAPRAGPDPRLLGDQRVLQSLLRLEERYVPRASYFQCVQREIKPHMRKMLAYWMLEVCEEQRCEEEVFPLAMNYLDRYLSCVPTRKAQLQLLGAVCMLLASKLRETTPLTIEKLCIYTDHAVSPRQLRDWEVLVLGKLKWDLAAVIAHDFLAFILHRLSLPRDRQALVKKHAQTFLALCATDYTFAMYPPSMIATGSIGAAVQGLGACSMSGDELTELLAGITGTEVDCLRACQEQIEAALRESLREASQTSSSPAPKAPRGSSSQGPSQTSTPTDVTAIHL

COc1ccc(-c2cc(=O)c3c(O)c(CN4CCCC4)c(O)c(CN4CCCC4)c3o2)cc1 [Compound 10a, 5,7-Dihydroxy-2-(4-methoxyphenyl)-6,8-bis(pyrrolidin-1-ylmethyl)-4H-chromen-4-one] showed a melting point of 207.1 to 207.3 °C, an inhibition at 20 µM (CDK4/cyclin D3) of 4.68 ± 0.07% and an inhibition at 20 µM (CDK1/cyclin B1) of 24.07 ± 0.1%.

Work on CCCN(CCC)Cc1c(O)cc2oc(-c3ccc(OC)cc3)cc(=O)c2c1O [Compound 9b, 6-((Dipropylamino)methyl)-5,7-dihydroxy-2-(4-methoxyphenyl)-4H-chromen-4-one] yielded a melting point of 180.6 to 181.3 °C, an inhibition at 20 µM (CDK4/cyclin D3) of 8.55 ± 0.09% and an inhibition at 20 µM (CDK1/cyclin B1) of 30.69 ± 0.1%.

Compound O=c1cc(-c2ccccc2)oc2c(CN3CCOCC3)c(O)c(O)c(O)c12 [Compound 1a] has an inhibition at 20 µM (CDK4/cyclin D3) of 6.71 ± 0.07% and an inhibition at 20 µM (CDK1/cyclin B1) of 25.48 ± 0.11%.

Compound O=c1cc(-c2ccccc2)oc2c(CN3CCCC3)c(O)cc(O)c12 [Compound 6a, 5,7-Dihydroxy-2-phenyl-8-(pyrrolidin-1-ylmethyl)-4H-chromen-4-one] has a melting point of 192.9 to 193 °C, an IC50 (CDK4/cyclin D3) of 229 ± 4.55 µM and an inhibition at 20 µM (CDK4/cyclin D3) of 6.3 ± 0.07%. The IC50 (CDK1/cyclin B1) was 51.4 ± 1.68 µM, the Selectivity (CDK1/cyclin B1) was 4.45 and the inhibition at 20 µM (CDK1/cyclin B1) was 35.95 ± 0.09%.

With COc1ccc(-c2cc(=O)c3c(O)cc(O)c(CN4CCSCC4)c3o2)cc1 [Compound 11a, 5,7-Bihydroxy-2-(4-methoxyphenyl)-8-(thiomorpholinomethyl)-4H-chromen-4-one] the melting point was 211 to 213.4 °C and the inhibition at 20 µM (CDK1/cyclin B1) was 26.12 ± 0.1%.

For O=c1cc(-c2ccccc2)oc2cc(OCCCCBr)cc(O)c12 [Compound 7d, 7-(4-Bromobutoxy)-5-hydroxy-2-phenyl-4H-chromen-4-one], the melting point was 162.6 to 163.6 °C, the inhibition at 20 µM (CDK4/cyclin D3) was 1.83 ± 0.06% and the inhibition at 20 µM (CDK1/cyclin B1) was 19.74 ± 0.11%.

Work on COc1ccc(-c2cc(=O)c3c(O)c(CN(C)C)c(O)c(CN(C)C)c3o2)cc1 [Compound 10d, 6,8-Bis((dimethylamino)methyl)-5,7-dihydroxy-2-(4-methoxyphenyl)-4H-chromen-4-one] yielded a melting point of 191.6 to 193.7 °C, an inhibition at 20 µM (CDK4/cyclin D3) of 2.73 ± 0.08% and an inhibition at 20 µM (CDK1/cyclin B1) of 35.53 ± 0.08%.

With O=c1cc(-c2ccccc2)oc2c(CN3CCOCC3)c(O)cc(O)c12 [Compound 6b, 5,7-Dihydroxy-8-(morpholinomethyl)-2-phenyl-4H-chromen-4-one] the melting point was 217.6 to 219.5 °C, the inhibition at 20 µM (CDK4/cyclin D3) was 9.36 ± 0.09% and the inhibition at 20 µM (CDK1/cyclin B1) was 34.47 ± 0.12%.

In the case of O=c1cc(-c2ccccc2)oc2cc(OCCBr)cc(O)c12 [Compound 7c, 7-(2-Bromoethoxy)-5-hydroxy-2-phenyl-4H-chromen-4-one], the melting point is reported as 169.3 to 170.1 °C and the inhibition at 20 µM (CDK1/cyclin B1) is reported as 22.74 ± 0.11%.

In the case of O=c1cc(-c2ccccc2)oc2c(CN3CCSCC3)c(O)cc(O)c12 [Compound 6c, 5,7-Dihydroxy-2-phenyl-8-(thiomorpholinomethyl)-4H-chromen-4-one], the melting point is reported as 218.3 to 219.5 °C, the inhibition at 20 µM (CDK4/cyclin D3) is reported as 9.87 ± 0.09% and the inhibition at 20 µM (CDK1/cyclin B1) is reported as 34.19 ± 0.1%.

With O=c1cc(-c2ccccc2)oc2cc(O)c(O)c(O)c12 [baicalein, reference compound] the IC50 (CDK4/cyclin D3) was 354 ± 5.67 µM, the IC50 (CDK1/cyclin B1) was 62.7 ± 1.52 µM and the Selectivity (CDK1/cyclin B1) was 5.65. It also gave an inhibition at 20 µM (CDK1/cyclin B1) of 18.85 ± 0.09%.

Work on CN(C)Cc1c(O)cc(O)c2c(=O)cc(-c3ccccc3)oc12 [Compound 6d, 8-((Dimethylamino)methyl)-5,7-dihydroxy-2-phenyl-4H-chromen-4-one] yielded a melting point of 241.9 to 242.3 °C, an inhibition at 20 µM (CDK4/cyclin D3) of 7.46 ± 0.06% and an inhibition at 20 µM (CDK1/cyclin B1) of 31.24 ± 0.08%.

With CN(C)Cc1c(O)c(O)c(O)c2c(=O)cc(-c3ccccc3)oc12 [Compound 1c] the inhibition at 20 µM (CDK1/cyclin B1) was 29.28 ± 0.11%.

In the case of O=c1cc(-c2ccccc2)oc2c(CN3CCSCC3)c3c(c(O)c12)OCCCCO3 [Compound 2b, 12-Hydroxy-9-phenyl-7-(thiomorpholinomethyl)-2,3,4,5-tetrahydro-[1,4]dioxocino[2,3-g]chromen-11-one], the melting point is reported as 202.3 to 203.6 °C, the inhibition at 20 µM (CDK4/cyclin D3) is reported as 10.18 ± 0.08% and the inhibition at 20 µM (CDK1/cyclin B1) is reported as 27.19 ± 0.07%.

Work on O=c1cc(-c2ccccc2)oc2c(CN3CCSCC3)c(O)c(CN3CCSCC3)c(O)c12 [Compound 5d, 5,7-Dihydroxy-2-phenyl-6,8-bis(thiomorpholinomethyl)-4H-chromen-4-one] yielded a melting point of 211 to 212.4 °C and an inhibition at 20 µM (CDK1/cyclin B1) of 30.39 ± 0.09%.

For O=c1cc(-c2ccccc2)oc2cc(O)cc(O)c12 [chrysin, reference compound], the IC50 (CDK4/cyclin D3) was 225 ± 3.46 µM, the IC50 (CDK1/cyclin B1) was 36.6 ± 1.23 µM and the Selectivity (CDK1/cyclin B1) was 6.13. The inhibition at 20 µM (CDK1/cyclin B1) was 32.77 ± 0.09%.

For COc1ccc(-c2cc(=O)c3c(O)c(CN4CCN(C)CC4)c(O)c(CN4CCN(C)CC4)c3o2)cc1 [Compound 10c, 5,7-Dihydroxy-2-(4-methoxyphenyl)-6,8-bis((4-methylpiperazin-1-yl)methyl)-4H-chromen-4-one], the melting point was 161.8 to 161.9 °C, the inhibition at 20 µM (CDK4/cyclin D3) was 8.57 ± 0.09% and the inhibition at 20 µM (CDK1/cyclin B1) was 27.7 ± 0.12%.

Compound CN1CCN(Cc2c(O)c(CN3CCN(C)CC3)c3oc(-c4ccccc4)cc(=O)c3c2O)CC1 [Compound 5e, 5,7-Dihydroxy-6,8-bis((4-methylpiperazin-1-yl)methyl)-2-phenyl-4H-chromen-4-one] has an inhibition at 20 µM (CDK1/cyclin B1) of 26.75 ± 0.1%.

With COc1ccc(-c2cc(=O)c3c(O)cc(OCCCCBr)cc3o2)cc1 [Compound 12d, 7-(4-Bromobutoxy)-5-hydroxy-2-(4-methoxyphenyl)-4H-chromen-4-one] the melting point was 178.9 to 179.8 °C, the inhibition at 20 µM (CDK4/cyclin D3) was 3.47 ± 0.04% and the IC50 (CDK1/cyclin B1) was 51.4 ± 1.56 µM. The inhibition at 20 µM (CDK1/cyclin B1) was 36.91 ± 0.08%.

Work on COc1cc(O)c2c(=O)cc(-c3ccccc3)oc2c1 [Compound 7b, 5-Hydroxy-7-methoxy-2-phenyl-4H-chromen-4-one] yielded an inhibition at 20 µM (CDK4/cyclin D3) of 1.76 ± 0.05% and an inhibition at 20 µM (CDK1/cyclin B1) of 21.27 ± 0.09%.

COc1ccc(-c2cc(=O)c3c(O)cc(OCc4ccccc4)cc3o2)cc1 [Compound 12a, 7-(Benzyloxy)-5-hydroxy-2-(4-methoxyphenyl)-4H-chromen-4-one] showed a melting point of 181.6 to 182.7 °C, an inhibition at 20 µM (CDK4/cyclin D3) of 6 ± 0.04% and an inhibition at 20 µM (CDK1/cyclin B1) of 32.38 ± 0.11%.

COc1ccc(-c2cc(=O)c3c(O)cc(O)cc3o2)cc1 [acacetin, reference compound] gave an IC50 (CDK4/cyclin D3) of 206 ± 3.61 µM, an inhibition at 20 µM (CDK4/cyclin D3) of 10.44 ± 0.07% and an IC50 (CDK1/cyclin B1) of 31.9 ± 1.08 µM. The Selectivity (CDK1/cyclin B1) was 6.45 and the inhibition at 20 µM (CDK1/cyclin B1) was 34.64 ± 0.11%.

In the case of COc1cc2oc(-c3ccccc3)cc(=O)c2c(O)c1CN1CCSCC1 [Compound 8b, 5-Hydroxy-7-methoxy-2-phenyl-6-(thiomorpholinomethyl)-4H-chromen-4-one], the melting point is reported as 210.3 to 212 °C and the inhibition at 20 µM (CDK1/cyclin B1) is reported as 20.47 ± 0.08%.

In the case of COc1ccc(-c2cc(=O)c3c(O)c(CN4CCSCC4)c(O)c(CN4CCSCC4)c3o2)cc1 [Compound 10b, 5,7-Dihydroxy-2-(4-methoxyphenyl)-6,8-bis(thiomorpholinomethyl)-4H-chromen-4-one], the melting point is reported as 214.2 to 215.5 °C and the inhibition at 20 µM (CDK1/cyclin B1) is reported as 29.54 ± 0.11%.

With O=c1cc(-c2ccccc2)oc2cc(OCc3ccccc3)cc(O)c12 [Compound 7a, 7-(Benzyloxy)-5-hydroxy-2-phenyl-4H-chromen-4-one] the IC50 (CDK4/cyclin D3) was 130 ± 2.84 µM, the IC50 (CDK1/cyclin B1) was 55 ± 1.45 µM and the Selectivity (CDK1/cyclin B1) was 2.37. For the same compound, the inhibition at 20 µM (CDK1/cyclin B1) was 39.51 ± 0.06%.

Work on O=c1cc(-c2ccccc2)oc2c(CN3CCSCC3)c(O)c(O)c(O)c12 [Compound 1b] yielded an inhibition at 20 µM (CDK4/cyclin D3) of 0.09 ± 0.03% and an inhibition at 20 µM (CDK1/cyclin B1) of 31.71 ± 0.08%.

For CN1CCN(Cc2c(O)cc3oc(-c4ccccc4)cc(=O)c3c2O)CC1 [Compound 4b, 5,7-Dihydroxy-6-((4-methylpiperazin-1-yl)methyl)-2-phenyl-4H-chromen-4-one], the melting point was 179.5 to 180.1 °C and the inhibition at 20 µM (CDK1/cyclin B1) was 28.14 ± 0.12%.

Work on O=c1cc(-c2ccccc2)oc2c(CN3CC=CC3)c(O)c(CN3CC=CC3)c(O)c12 [Compound 5b, 6,8-Bis((2H-pyrrol-1(5H)-yl)methyl)-5,7-dihydroxy-2-phenyl-4H-chromen-4-one] yielded a melting point of 172.7 to 174.3 °C and an inhibition at 20 µM (CDK1/cyclin B1) of 28.66 ± 0.11%.

In the case of COc1cc2oc(-c3ccccc3)cc(=O)c2c(O)c1CN1CCOCC1 [Compound 8a, 5-Hydroxy-7-methoxy-6-(morpholinomethyl)-2-phenyl-4H-chromen-4-one], the melting point is reported as 187 to 188.6 °C and the inhibition at 20 µM (CDK1/cyclin B1) is reported as 31.04 ± 0.1%.

Compound O=c1cc(-c2ccccc2)oc2cc(O)c(CN3CCCC3)c(O)c12 [Compound 4a, 5,7-Dihydroxy-2-phenyl-6-(pyrrolidin-1-ylmethyl)-4H-chromen-4-one] has a melting point of 195.2 to 196.3 °C and an inhibition at 20 µM (CDK1/cyclin B1) of 31.72 ± 0.1%.

With COc1ccc(-c2cc(=O)c3c(O)cc(OC)cc3o2)cc1 [Compound 12b, 5-Hydroxy-7-methoxy-2-(4-methoxyphenyl)-4H-chromen-4-one] the inhibition at 20 µM (CDK4/cyclin D3) was 7.93 ± 0.08% and the inhibition at 20 µM (CDK1/cyclin B1) was 32.4 ± 0.11%.

COc1ccc(-c2cc(=O)c3c(O)c(CN4CCN(C)CC4)c(O)cc3o2)cc1 [Compound 9a, 5,7-Dihydroxy-2-(4-methoxyphenyl)-6-((4-methylpiperazin-1-yl)methyl)-4H-chromen-4-one] gave a melting point of 172.3 to 173.4 °C, an inhibition at 20 µM (CDK4/cyclin D3) of 5.43 ± 0.06% and an inhibition at 20 µM (CDK1/cyclin B1) of 26.36 ± 0.09%.

Work on O=c1cc(-c2ccccc2)oc2c(CN3CCCC3)c(O)c(CN3CCCC3)c(O)c12 [Compound 5a, 5,7-Dihydroxy-2-phenyl-6,8-bis(pyrrolidin-1-ylmethyl)-4H-chromen-4-one] yielded a melting point of 194.9 to 196.6 °C, an inhibition at 20 µM (CDK4/cyclin D3) of 7.22 ± 0.08% and an inhibition at 20 µM (CDK1/cyclin B1) of 29 ± 0.12%.

CCCN(CCC)Cc1c(O)c(O)c(O)c2c(=O)cc(-c3ccccc3)oc12 [Compound 1d] showed an inhibition at 20 µM (CDK4/cyclin D3) of 2.47 ± 0.08% and an inhibition at 20 µM (CDK1/cyclin B1) of 31.11 ± 0.1%.
